# Data reported in patent publication US9120819B2, “FGF-receptor agonist dimeric compounds” (SANOFI, priority 2006, dated 2015).
# Columns and labels:
# [1] = system: human vein endothelial cells (HUVECs); experiment: In vitro angiogenesis model (HUVEC rearrangement on matrigel, pseudotubule length); type: cell-based; details: at a concentration of 10 nM, 24 hours
# Description: In vitro Angiogenesis Model
# The products are tested in terms of inducing the rearrangement of human vein endothelial cells (HUVECs) on matrigel (Becton dickinson 356230) diluted in collagen (rat tail collagen, type I: Becton dickinson 354236). After 24 hours, the cells are observed under the microscope with a X4 objective and the length of the pseudotubules is measured by means of an image analyser (BIOCOM-Visiolab 2000 software).
# C57 mice = experiment: Model of post-ischaemic leg revascularization in mice; type: in vivo; details: 30 mg/kg/day administered subcutaneously for 7 days
# Description: Model of Post-Ischaemic Leg Revascularization in Mice
# The experiment is carried out on C57 mice (IFFA CREDO France).
# The animals are anaesthetized by intraperitonal injection, in a volume of 10 ml/kg, of a solution of 50 mg/kg ketamine (Ketamine 1000 Virbac®, Virbac Carros France) and 10 mg/kg xylazine (Rompun 2%®, Bayer Pharma Puteaux France). The animal is placed so that it is lying on its back, and after shaving and disinfection of the skin by painting with Vetedine® solution (Vetoquinol S.A. Lure France), an incision is made in the inguinal region. The femoral artery is excized, the collateral arteries are cauterized and the external and circumflex iliac arteries are ligatured. The skin is sutured with separate stitches using non-resorbable thread. The animals are placed in the recovery room, the temperature of which is regulated at 25° C., until they are completely awake.
# The distal perfusion is measured using a laser Doppler scanner (LDPI Lisca Perimed model PIM II, AB Sweden). This technique makes it possible to measure the cutaneous perfusion of the upper part of the back legs. […] Measurements are carried out successively on the healthy leg and on the leg rendered ischaemic in order to establish a perfusion deficit expressed as %. […]
# FGF-R1β-hMp1 = experiment: Baf/3-FGFR1β proliferation model; type: cell-based, murine; details: at a concentration of 30 μM
# Description: (§1) Baf/3-FGFR1β or FGF-R4α Proliferation Model
# (§2) Obtaining the Chimeric Receptor Constructs
# (§3) The chimeric receptors are made up of the intracellular portion of hMp1 (NM_005373) and the transmembrane and extracellular domains of FGF-R1β or FGF-R4α.
# (§4) For each FGF receptor, the FGF-R (BamHI-SacI) and hMp1 (SacI-NotI) fragments are simultaneously cloned into the vector pEF6 (Invitrogen) digested with BamHI and NotI.
# (§5) Murine BaF/3 cells are transfected by electroporation. 20 μg of plasmid carrying the constructs FGF-R1β-hMp1 or FGF-R4α-hMp1 are mixed with 5×10^6 cells taken up in 800 μl of RPMI (invitrogen). The mixture is subjected to two electric shocks of 400 V with an interval of 0.1 ms. The cells are taken up for 48 h in an RPMI medium containing 10% FCS (foetal calf serum, gibco), glutamine (invitrogen), NEAA (nonessential amino acids, invitrogen), NaPyr (sodium pyruvate, invitrogen) and 10 ng/ml of IL-3, before being selected with 10 μg/ml of blasticidin (Cayla).
# (§6) Culture of Transfected Cells […]
# (§7) A confluent culture of BaF/3 cells carrying the chimeric receptors is passaged one-in-three in culture medium supplemented with IL-3 (10 ng/ml) for 24 h. […] The plates are incubated for 28 h at 37° C. and then 100 μl of Cell Titer Glo (Promega) are added and the amount of ATP is quantified using a luminometer (Luminoskan Ascent, Labsystems).
# FGF-R4α-hMp1 = experiment: Baf/3-FGF-R4α proliferation model; type: cell-based, murine; details: at a concentration of 30 μM
# Description: as §1, §2, §3, §4, §5, §6, §7
structure (smiles),measurement,setting,value
"COc1c(C)c(C(=O)c2ccc(N)c(C(=O)[O-])c2)n2cccc(OCCOCCOCCOCCOCCOCCOc3cccn4c(C(=O)c5ccc(N)c(C(=O)[O-])c5)c(C)c(OC)c34)c12.[Na+].[Na+] [Example 2, disodium salt of 3,3′-{3,6,9,12,15-pentaoxaheptadecane-1,17-diylbis[oxy(1-methoxy-2-methylindolizine-8,3-diyl)carbonyl]}bis(6-aminobenzoic acid)]",activity on the in vitro angiogenesis model,[1],active
"COc1cc(C(=O)c2nc(-c3cccc(C(=O)[O-])c3)c3c(OCCOCCOCCOCCOCCOCCOc4cccn5c(C(=O)c6ccc(N)c(OC)c6)nc(-c6cccc(C(=O)[O-])c6)c45)cccn23)ccc1N.[Na+].[Na+] [Example 8, Disodium salt of 3,3′-(3,6,9,12,15-pentaoxaheptadecane-1,17-diylbis{oxy[3-(4-amino-3-methoxybenzoyl)imidazo[1,5-a]pyridine-8,1-diyl]})dibenzoic acid]",activity on the in vitro angiogenesis model,[1],active
"Cc1c(OCCOCCOCCOCCOCCOCCOCCOc2c(C)c(C(=O)c3ccc(N)c(C(=O)[O-])c3)n3ccccc23)c2ccccn2c1C(=O)c1ccc(N)c(C(=O)[O-])c1.[Na+].[Na+] [Example 21, Disodium salt of 3,3′-{3,6,9,12,15,18-hexaoxaicosane-1,20-diylbis[oxy(2-methylindolizine-1,3-diyl)carbonyl]}bis(6-aminobenzoic acid)]",activity in the ischaemic leg model (post-ischaemic perfusion recovery),C57 mice,significant activity
Cc1c(NC(=O)c2cccc(OCC(=O)NCCNC(=O)COc3cccc(C(=O)Nc4c(C)c(C(=O)c5ccc(N)c(C(=O)[O-])c5)n5ccccc45)c3)c2)c2ccccn2c1C(=O)c1ccc(N)c(C(=O)[O-])c1.[Na+].[Na+] [Example 44],activity on the Baf/3-FGFR1β proliferation,FGF-R1β-hMp1,active
same,activity on the Baf/3-FGF-R4α proliferation,FGF-R4α-hMp1,active
